Test results taken from publication PMC11009412, “Pathogenic mutations of human phosphorylation sites affect protein–protein interactions” (Nature Communications, 2024).
Several values for one entry are separate records, joined by “and”; a condition that tells them apart may be missing. Identical values can stand only once. Non-standard residues stand in square brackets, D forms with d. Residues, ends and D or L forms follow the SMILES beside them. pS = N[C@@H](COP(=O)(O)O)C(=O)O

Legend:
GRB2 = experiment: PRISMA peptide pull-down screen, GRB2 binding to the EGFR control peptide; parameters: species or system human; settings: PRISMA pull-down from SILAC-labelled HEK-293 lysate; in all three replicates
Text: (§1) A total of 117 peptides, consisting of 15 amino acids each, were synthesized in situ on a cellulose membrane using SPOT synthesis techniques[25] provided by JPT Peptide Technologies in Berlin, Germany. Among these peptides, 39 were wild-type non-phosphorylated, 39 were mutated, and 39 were phosphorylated. Whenever possible, the mutation site was positioned at position 7, which is in the center of the immobilized peptides, with their C-termini serving as the point of immobilization.
(§2) For the experimental procedure, three membranes were initially incubated with the lysis buffer (HEPES (50 mM, pH 7.9), NaCl (150 mM), EGTA (1 mM), MgCl2 (1 mM), glycerol (20%), NP-40 (1%), SDS (0.1%), and sodium deoxycholate (0.5%)). The membranes were incubated with the lysis buffer until completely moistened. […]
(§3) HEK-293 cells were lysed with the lysis buffer and the protein concentration was measured using DC protein assay (Bio-Rad). […]
(§4) During the analysis, peptides were eluted from the analytical column at a flow rate of 500 nl/min, employing a gradient as follows: 5 to 10% B over 5 min, 10 to 40% B over 60 min, 40 to 99% B over 5 min, and maintaining 99% B for 5 min. The samples were measured in the orbitrap fusion mass spectrometer using the following methods: a full scan was performed with a resolution of 120,000 over an m/z range of 300–1500. […]

14-3-3 epsilon (YWHAE) = target: T1, 14-3-3 epsilon (YWHAE) (Homo sapiens, UniProt P62258); experiment: Isothermal titration calorimetry (ITC) of GATAD1 peptides with 14-3-3ε; assay type: binding; settings: 18 °C, 400 µM peptide in syringe, 25 µM 14-3-3ε in chamber, 20 mM HEPES pH 7.0, 150 mM NaCl, 2 mM DTT
T1 construct: residues 1 and 236-255 are disordered and therefore not visible in the electron density; GST (N, cleaved yes); made in house; host or cells: Escherichia coli C41 (DE3)
T1 sequence (P62258 1-255): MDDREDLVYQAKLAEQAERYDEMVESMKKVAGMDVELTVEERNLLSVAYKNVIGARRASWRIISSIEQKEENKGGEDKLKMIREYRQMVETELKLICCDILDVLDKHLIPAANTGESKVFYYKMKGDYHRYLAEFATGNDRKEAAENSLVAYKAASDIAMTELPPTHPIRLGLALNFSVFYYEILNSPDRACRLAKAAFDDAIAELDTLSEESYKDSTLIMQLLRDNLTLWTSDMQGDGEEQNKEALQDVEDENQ
Description: The 14-3-3ε (YWHAE) cDNA was purchased from Twist Bioscience in the pTwist Chlor High Copy vector and cloned into the pGEX6P1 plasmid (GE Healthcare) for recombinant expression as a GST-fusion protein followed by a Prescission protease cleavage site. The plasmid was freshly transformed into Escherichia coli C41 (DE3) cells. Cultures were grown in terrific broth supplemented with ampicillin (100 μg/ml) at 37 °C and 80 rpm until an optical density at 600 nm of 0.7 was reached. […] Cells were harvested by centrifugation at 4000 g and frozen at −20 °C.
Following resuspension in lysis buffer (50 mM HEPES/NaOH pH 7.5, 500 mM NaCl and 3 mM Dithiothreitol (DTT)) supplemented with 1 mg deoxyribonuclease I (DNaseI, Roche) and protease inhibitor 4-(2-Aminoethyl) benzenesulfonyl fluoride hydrochloride S7(AEBSF), cells were disrupted using a microfluidizer (Microfluidics). The cell extract was centrifuged at 55,000 g for 45 min at 4 °C to remove insoluble parts. The cleared supernatant was applied onto a prepacked Glutathione Sepharose 4B column (Cytiva) equilibrated in the lysis buffer. The column was extensively washed with lysis buffer. To cleave off the GST tag, 1 mg PreScission protease was diluted in 5 ml OCC buffer (50 mM HEPES/NaOH pH 7.5, 150 mM NaCl, and 3 mM DTT), applied to the column material, and incubated overnight at 4 °C. Cleaved 14-3-3ε protein was eluted from the column using OCC buffer, concentrated and loaded onto an 16/60 S200 column (Cytiva) equilibrated in SEC buffer (20 mM HEPES/NaOH pH 7.5, 150 mM NaCl and 2 mM DTT). Pure and homogenous 14-3-3ε was concentrated to 13 mg/ml, flash-frozen in liquid nitrogen, and stored at −80 °C until further use.
GATAD1 peptides used in these experiments were obtained from JPT peptide technologies with an N-terminus in amine and a C-terminus in amide form with 95% purity. ITC experiments were performed using a PEAQ-ITC microcalorimeter (Malvern). All titrations were performed at 18 °C with 400 µM peptide in the syringe and 25 µM 14-3-3ε in the reaction chamber. The protein and the titration components were dissolved in a buffer containing 20 mM HEPES pH 7.0, 150 mM NaCl, and 2 mM DTT. Malvern software was used for data visualization and fitting. The raw ITC results can be found in Supplementary Fig. 42.

[1] = tested on: 14-3-3 proteins (beta/alpha, gamma, epsilon, zeta, eta and theta); experiment: Alanine scanning PRISMA pull-down, 14-3-3 proteins; assay type: binding, human; settings: PRISMA pull-down from HEK-293T lysate, LFQ, triplicates
Description: In this experiment, each amino acid from the −5 to +5 positions surrounding the phosphorylated residue was mutated to alanine, except for original alanine residues which were mutated to glycine. The experiment also included the wild-type phosphorylated, wild-type non-phosphorylated, disease-associated mutant, and aspartic acid mutant peptides. These 15 peptides were synthesized on a cellulose membrane in triplicates (n = 3 biological replicates) to facilitate the pull-down of proteins from HEK-293T cell lysate. The synthesis of peptides, pull-downs, and sample preparation for mass spectrometry followed the procedures described earlier for the PRISMA screen. Subsequently, samples were eluted from StageTips using a solution containing 50% acetonitrile and 0.1% formic acid, dried, and resuspended in a solution containing 3% acetonitrile and 0.1% formic acid. […]
The acquired mass spectra were subjected to further analysis using MaxQuant (version 1.6.3.4). […] The LFQ values of significant proteins were z-scored by row and hierarchical clustering was performed (Fig. 6A and Supplementary Data 5). To better visualize the 14-3-3 proteins, their LFQ values were extracted from the whole table and were z scored and clustered individually (Fig. 5C).

14-3-3 family proteins = experiment: PRISMA peptide pull-down screen, 14-3-3 binding to GATAD1 peptides; parameters: species or system human; settings: LFQ volcano plot and SILAC scatter plot; HEK-293 lysate, triplicates
Text: as §1, §2, §3, §4

TFLPVPEpYINQSVPK [EGFR_phos, positive control, well-characterized EGFR-derived phosphopeptide]
SILAC ratio phos/mut of GRB2 (GRB2): > 20 | SILAC ratio phos/wt of GRB2 (GRB2): > 20

LRNTKYKDAPAAEKK [S102D, phosphomimetic S102D mutant GATAD1 peptide]
Interaction with 14-3-3ε by ITC (in words) (14-3-3 epsilon (YWHAE)): do not interact | 14-3-3 proteins pulled down in alanine scanning (in words) [1]: did not interact

CC(C)C[C@H](N)C(=O)N[C@@H](CCCNC(=N)N)C(=O)N[C@@H](CC(N)=O)C(=O)N[C@H](C(=O)N[C@@H](CCCCN)C(=O)N[C@@H](Cc1ccc(O)cc1)C(=O)N[C@@H](CCCCN)C(=O)N[C@@H](COP(=O)(O)O)C(=O)N[C@@H](C)C(=O)N1CCC[C@H]1C(=O)N[C@@H](C)C(=O)N[C@@H](C)C(=O)N[C@@H](CCC(=O)O)C(=O)N[C@@H](CCCCN)C(=O)N[C@@H](CCCCN)C(N)=O)[C@@H](C)O [GATAD1_phos] (H-LRNTKYK[pS]APAAEKK-NH2)
N (stoichiometry) by ITC (14-3-3 epsilon (YWHAE)): 1.42 ± 0.04 | Kd (14-3-3 epsilon (YWHAE); PEAQ-ITC, peptides N-terminal amine, C-terminal amide, read-out: Kd (binding constant) by ITC): ~3 µM and 3.4 µM | Specific and differential binding of 14-3-3 proteins in PRISMA (in words) (14-3-3 family proteins): specifically interacts with the multiple 14-3-3 protein family members
